Read-outs that look alike come from different tables or passages of the source.
How the values were obtained:
[1] = test system: FADD-deficient Jurkat cells; assay: Cellular necroptosis assay (human TNFα-induced); format: cell-based; details: read-out: Cell IC50
Method: Ten concentrations of the test compounds were assessed in duplicate in two different test occasions. […] The day of the experiment cells were diluted to a density of […] (5,000 cells/well) with culture medium and added (40 μL) into the 384-well plate containing 0.2 μL/well of test compounds and reference compounds (CRCs) (200×). Cell plates were then incubated at 37° C.-5% CO2. After 30 min, necroptotic cell death was induced with human TNFα (10 ng/mL) and cell viability was evaluated 48 h later by measuring cellular ATP levels using CellTiter-Glo® kit (Promega). Luminescence was read by using Victor V (Perkin Elmer) multilabel plate reader.

[2] = target: P-gp (P-glycoprotein, MDR1) (Homo sapiens (Human), UniProt P08183); assay: MDCKII-MDR1 permeability, efflux ratio; format: in vitro ADME; details: dog, MDCK-MDR1, pH 7.4, MDCKII-MDR1 cells, read-out: ER MDR1
Method: The blood brain barrier (BBB) separates circulating blood from the extracellular fluid of the central nervous system (CNS). The passive membrane permeability (Papp) and the P-gp (P-glycoprotein) substrate efflux potential were determined using the MDCKII-MDR1 cell line as an in vitro model of the effective permeability of a compound through the BBB. A bidirectional assay (Apical to Basolateral (A→B) and Basolateral to Apical (B→A)), in the absence and in the presence of GF120918 (a P-gp inhibitor) was conducted using pre-plated MDCKII-MDR1 cells (Corning HTS Transwell-96) obtained from SOLVO Biotechnology. The assay was run at 3 μM for 90 min (minutes) in triplicate using a HBSS+12.5 mM HEPES pH 7.4 transport buffer. Following incubation of samples from donor and receiver, wells were removed and measured by LC-MS/MS. Samples were extracted by protein precipitation with acetonitrile containing an appropriate internal standard (IS) having a known mass and molecular weight. The precipitate was centrifuged for 10 min at 3000 rpm (revolutions per minute). The supernatants were then collected, diluted if necessary, and injected on to the LC-MS/MS system. […] Papp (apparent permeability expressed in nm/sec [nanometer/second]) values were calculated according to the following equation: […]
Where dQ/dt is the permeability rate, C0 is the initial concentration in the donor solution (expressed as IS ratio), A and B are the surface areas of the filter (the surface area of the cell monolayer).
Monolayer efflux ratios (ER) were derived using the following equation: […]

[3] = in vivo
[4] = cynomolgus monkey, in vivo
GST-hRIPK1 (8-327) = GST-hRIPK1 (8-327) (Homo sapiens (Human), UniProt Q13546); assay: Fluorescent Polarization Binding (FP Binding) assay; details: 10 nM GST-hRIPK1 (8-327), 5 nM fluorescent labeled ligand; read-out: FP IC50
Method: Fluorescent Polarization Binding (FP Binding) assay (Berger S. B. et al. […] Maki J. L. et al. […] Test Compounds were serially diluted in DMSO at 100 fold final concentrations in the assay (1% DMSO final). […] For negative control the enzyme addition was replaced by assay buffer only. After addition of 5 μL of fluorescent labeled ligand at twice the final concentrations in assay buffer, the plate was incubated at RT for 30 min.

[5] = human TNFα 10 ng/mL, viability after 48 h
[6] = male, Sprague-Dawley Crl:CD(SD)
[7] = Homo sapiens, 48 h, human TNFα 10 ng/mL, viability after 48 h

Chain of GST-hRIPK1 (8-327) (Q13546 8-327): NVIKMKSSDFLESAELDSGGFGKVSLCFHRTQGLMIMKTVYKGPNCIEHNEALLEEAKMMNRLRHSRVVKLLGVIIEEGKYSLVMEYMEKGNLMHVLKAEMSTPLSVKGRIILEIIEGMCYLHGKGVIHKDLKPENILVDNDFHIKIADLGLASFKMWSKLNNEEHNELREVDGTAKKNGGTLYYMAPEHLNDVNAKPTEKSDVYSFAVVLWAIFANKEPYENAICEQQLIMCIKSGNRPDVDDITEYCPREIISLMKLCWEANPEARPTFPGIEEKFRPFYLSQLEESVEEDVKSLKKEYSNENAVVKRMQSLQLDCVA
Chain of P-gp (P-glycoprotein, MDR1) (P08183 whole entry): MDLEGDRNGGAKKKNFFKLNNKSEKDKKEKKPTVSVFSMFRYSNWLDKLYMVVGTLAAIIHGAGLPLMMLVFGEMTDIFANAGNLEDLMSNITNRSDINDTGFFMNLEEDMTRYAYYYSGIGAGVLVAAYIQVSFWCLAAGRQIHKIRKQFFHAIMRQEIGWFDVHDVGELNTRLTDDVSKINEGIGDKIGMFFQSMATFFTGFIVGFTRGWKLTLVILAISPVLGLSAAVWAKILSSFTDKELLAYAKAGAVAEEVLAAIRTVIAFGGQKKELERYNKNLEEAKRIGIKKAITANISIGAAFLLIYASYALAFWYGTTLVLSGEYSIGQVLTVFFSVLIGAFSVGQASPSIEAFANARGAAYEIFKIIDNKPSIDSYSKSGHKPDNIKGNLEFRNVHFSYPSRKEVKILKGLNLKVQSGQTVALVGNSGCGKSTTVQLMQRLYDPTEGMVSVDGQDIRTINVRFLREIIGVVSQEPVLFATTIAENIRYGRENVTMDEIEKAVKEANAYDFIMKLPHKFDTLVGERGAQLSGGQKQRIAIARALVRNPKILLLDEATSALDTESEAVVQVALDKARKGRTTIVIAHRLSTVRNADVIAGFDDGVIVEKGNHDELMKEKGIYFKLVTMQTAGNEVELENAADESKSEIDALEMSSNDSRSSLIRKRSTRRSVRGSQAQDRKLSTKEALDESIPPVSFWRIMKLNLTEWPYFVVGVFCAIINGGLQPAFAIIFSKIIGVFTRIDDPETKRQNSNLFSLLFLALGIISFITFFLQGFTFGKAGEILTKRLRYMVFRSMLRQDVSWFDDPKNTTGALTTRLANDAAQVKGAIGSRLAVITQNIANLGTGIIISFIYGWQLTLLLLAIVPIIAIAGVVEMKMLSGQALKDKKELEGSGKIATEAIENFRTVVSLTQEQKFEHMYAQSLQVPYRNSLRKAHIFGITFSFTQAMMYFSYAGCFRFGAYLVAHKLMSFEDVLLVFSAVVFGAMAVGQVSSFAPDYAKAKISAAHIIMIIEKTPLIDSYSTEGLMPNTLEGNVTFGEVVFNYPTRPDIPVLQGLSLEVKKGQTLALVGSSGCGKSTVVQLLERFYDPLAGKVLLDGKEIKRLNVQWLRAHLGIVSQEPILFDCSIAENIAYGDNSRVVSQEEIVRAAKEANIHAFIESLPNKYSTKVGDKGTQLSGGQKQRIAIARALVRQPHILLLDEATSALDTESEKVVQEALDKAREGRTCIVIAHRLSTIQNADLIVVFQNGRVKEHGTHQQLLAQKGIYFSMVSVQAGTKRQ

SMILES	IC50 (GST-hRIPK1 (8-327))	IC50 [1, 7]	other results
CN1C(=O)[C@@H](NC(=O)c2cc(C3(c4ccccc4)CC3)on2)COc2ccccc21 [Example 8, (S)-N-(5-methyl-4-oxo-2,3,4,5-tetrahydrobenzo[b][1,4]oxazepin-3-yl)-5-(1-phenylcyclopropyl)isoxazole-3-carboxamide]			IC50 [1, 5]: 4 nM; efflux ratio at 90 min, 3 μM [2]: 0.8; Rat unbound CL [3, 6]: 3700 mL/min/kg
CN1C(=O)[C@@H](NC(=O)c2cc(Cc3ccccc3)on2)CC2(CC2)c2ccccc21 [Example 9, (S)-5-benzyl-N-(1-methyl-2-oxo-1,2,3,4-tetrahydrospiro[benzo[b]azepine-5,1′-cyclopropan]-3-yl)isoxazole-3-carboxamide]			IC50 [1, 5]: 8 nM
CN1C(=O)[C@@H](NC(=O)c2nc(Cc3ccccc3)n[nH]2)COc2cccnc21 [Example 42, (S)-5-benzyl-N-(5-methyl-4-oxo-2,3,4,5-tetrahydropyrido[3,2-b][1,4]oxazepin-3-yl)-4H-1,2,4-triazole-3-carboxamide]			IC50 ([1]; Homo sapiens, 48 h): 0.6 nM
CN1C(=O)[C@@H](NC(=O)c2nnc(Cc3ccccc3)[nH]2)[C@H]2C[C@H]2c2ccccc21 [Example 46A]			Rat unbound CL [3]: 188 mL/min/kg
C[C@H]1Oc2cccnc2N(C)C(=O)[C@H]1NC(=O)c1nn(Cc2ccccc2)cc1F [Example 92, 1-benzyl-N-((2R,3S)-2,5-dimethyl-4-oxo-2,3,4,5-tetrahydropyrido[3,2-b][1,4]oxazepin-3-yl)-4-fluoro-1H-pyrazole-3-carboxamide]		0.7 nM	efflux ratio at 90 min, 3 μM [2]: 1.4; Rat unbound CL [3, 6]: 420 mL/min/kg
CN1C(=O)[C@@H](NC(=O)c2cc(Cc3ccccc3)on2)COc2cccnc21 [Example 142, (S)-5-Benzyl-N-(5-methyl-4-oxo-2,3,4,5-tetrahydropyrido[3,2-b][1,4]oxazepin-3-yl)isoxazole-3-carboxamide]		0.7 nM	
CN1C(=O)[C@@H](NC(=O)c2nnc(Cc3cccc(C#N)c3)[nH]2)COc2cccnc21 [Example 161, (S)-5-(3-cyanobenzyl)-N-(5-methyl-4-oxo-2,3,4,5-tetrahydropyrido[3,2-b][1,4]oxazepin-3-yl)-4H-1,2,4-triazole-3-carboxamide]		2 nM	
CN1C(=O)[C@@H](NC(=O)c2nnc(Cc3cccc(C#N)c3)[nH]2)COc2ccccc21 [Example 163, (S)-5-(3-cyanobenzyl)-N-(5-methyl-4-oxo-2,3,4,5-tetrahydrobenzo[b][1,4]oxazepin-3-yl)-4H-1,2,4-triazole-3-carboxamide]		1 nM	
CN1C(=O)[C@@H](NC(=O)c2ncn(Cc3cccc(C#N)c3)n2)COc2cccnc21 [Example 171, (S)-1-(3-cyanobenzyl)-N-(5-methyl-4-oxo-2,3,4,5-tetrahydropyrido[3,2-b][1,4]oxazepin-3-yl)-1H-1,2,4-triazole-3-carboxamide]			Rat unbound CL [3, 6]: 32 mL/min/kg
C[C@H]1Oc2cccnc2N(C)C(=O)[C@H]1NC(=O)c1ncn(Cc2cccc(C#N)c2)n1 [Example 172, 1-(3-cyanobenzyl)-N-((2R,3S)-2,5-dimethyl-4-oxo-2,3,4,5-tetrahydropyrido[3,2-b][1,4]oxazepin-3-yl)-1H-1,2,4-triazole-3-carboxamide]		1 nM	Rat unbound CL [3, 6]: 65 mL/min/kg
CN1C(=O)[C@@H](NC(=O)c2nnc(Cc3ccccc3)o2)[C@H]2C[C@H]2c2nccnc21 [Example 177A]			Rat unbound CL [3]: 55 mL/min/kg; Cyno unbound CL [4]: 58 mL/min/kg
C[C@H]1Oc2ncccc2N(C)C(=O)[C@H]1NC(=O)c1nnc(Cc2ccccc2)o1 [Example 193, 5-benzyl-N-((3S,4R)-1,4-dimethyl-2-oxo-1,2,3,4-tetrahydropyrido[2,3-b][1,4]oxazepin-3-yl)-1,3,4-oxadiazole-2-carboxamide]		210 nM	
CN1C(=O)[C@@H](NC(=O)c2cn(Cc3ccccc3)nn2)[C@H]2C[C@H]2c2nccnc21 [Example 195, 1-benzyl-N-((7S,7aS,8aR)-5-methyl-6-oxo-5,6,7,7a,8,8a-hexahydrocyclopropa[d]pyrazino[2,3-b]azepin-7-yl)-1H-1,2,3-triazole-4-carboxamide]		16 nM	
CN1C(=O)[C@@H](NC(=O)c2cc(Cc3ccccc3)on2)[C@H]2C[C@H]2c2nccnc21 [Example 197, 5-benzyl-N-((7S,7aS,8aR)-5-methyl-6-oxo-5,6,7,7a,8,8a-hexahydrocyclopropa[d]pyrazino[2,3-b]azepin-7-yl)isoxazole-3-carboxamide]		3 nM	
[2H]C([2H])([2H])N1C(=O)[C@@H](NC(=O)c2nn(Cc3ccccc3)cc2F)[C@@H](C)Oc2ncccc21 [Example 205, 1-benzyl-N-((3S,4R)-1-trideuteriomethyl-4-methyl-2-oxo-1,2,3,4-tetrahydropyrido[2,3-b][1,4]oxazepin-3-yl)-4-fluoro-1H-pyrazole-3-carboxamide]		21 nM	
CN1C(=O)[C@@H](NC(=O)c2nnc(Cc3ccc(F)cc3)o2)[C@H]2C[C@H]2c2nccnc21 [Example 223, 5-(4-fluorobenzyl)-N-((7S,7aS,8aR)-5-methyl-6-oxo-5,6,7,7a,8,8a-hexahydrocyclopropa[d]pyrazino[2,3-b]azepin-7-yl)-1,3,4-oxadiazole-2-carboxamide]	0.1 to 1000 nM		

Further lines, with some results ahead:

IC50 (GST-hRIPK1 (8-327))	SMILES	IC50 [1, 7]	other results
0.1 to 1000 nM	CN1C(=O)[C@@H](NC(=O)c2nnc(Cc3ccccc3)[nH]2)[C@H]2C[C@H]2c2cc(C#N)cnc21 [Example 218, 5-benzyl-N-((1aS,2S,8bR)-7-cyano-4-methyl-3-oxo-1,1a,2,3,4,8b-hexahydrocyclopropa[d]pyrido[2,3-b]azepin-2-yl)-4H-1,2,4-triazole-3-carboxamide]		
0.1 to 1000 nM	CN1C(=O)[C@@H](NC(=O)c2ncc(Cc3cccc(C#N)c3)s2)CCc2cccnc21 [Example 219, (S)-5-(3-cyanobenzyl)-N-(9-methyl-8-oxo-6,7,8,9-tetrahydro-5H-pyrido[2,3-b]azepin-7-yl)thiazole-2-carboxamide]		
0.1 to 1000 nM	COc1cccc(Cn2cc(F)c(C(=O)N[C@H]3COc4ccccc4N(C)C3=O)n2)n1 [Example 220, (S)-4-fluoro-1-((6-methoxypyridin-2-yl)methyl)-N-(5-methyl-4-oxo-2,3,4,5-tetrahydrobenzo[b][1,4]oxazepin-3-yl)-1H-pyrazole-3-carboxamide]		
0.1 to 1000 nM	C[C@H]1Oc2cccnc2N(C)C(=O)[C@H]1NC(=O)c1nnc(C(F)(F)c2ccccc2)o1 [Example 221, 5-(difluoro(phenyl)methyl)-N-((2R,3S)-2,5-dimethyl-4-oxo-2,3,4,5-tetrahydropyrido[3,2-b][1,4]oxazepin-3-yl)-1,3,4-oxadiazole-2-carboxamide]		
0.1 to 1000 nM	C[C@H]1Oc2cccnc2N(C)C(=O)[C@H]1NC(=O)c1noc(Cc2ccccc2)n1 [Example 222, 5-benzyl-N-((2R,3S)-2,5-dimethyl-4-oxo-2,3,4,5-tetrahydropyrido[3,2-b][1,4]oxazepin-3-yl)-1,2,4-oxadiazole-3-carboxamide]		
0.1 to 1000 nM	CN1C(=O)[C@@H](NC(=O)c2nn(Cc3ncccn3)cc2F)COc2ccccc21 [Example 224, (S)-4-fluoro-N-(5-methyl-4-oxo-2,3,4,5-tetrahydrobenzo[b][1,4]oxazepin-3-yl)-1-(pyrimidin-2-ylmethyl)-1H-pyrazole-3-carboxamide]		
0.1 to 1000 nM	CN1C(=O)[C@@H](NC(=O)c2nnc(Cc3ccccc3)o2)CCc2ccccc21 [Example 225, (S)-5-benzyl-N-(1-methyl-2-oxo-2,3,4,5-tetrahydro-1H-benzo[b]azepin-3-yl)-1,3,4-oxadiazole-2-carboxamide]		
0.1 to 1000 nM	CN1C(=O)[C@@H](NC(=O)c2ncc(Cc3ccccn3)o2)[C@H]2C[C@H]2c2nccnc21 [Example 226]		
0.1 to 1000 nM	CN1C(=O)[C@@H](NC(=O)c2ncc(C(F)(F)c3ccccc3)o2)[C@H]2C[C@H]2c2nccnc21 [Example 227]		

Source: patent US9815850B2, “Compounds, compositions and methods” (Denali Therapeutics Inc., priority 2016, dated 2017)
